In PubChem BioAssay (NCI):
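Method: 48-hour compound exposure of cells in 96-well plates, five concentrations, linear interpolation of endpoints. TGI: total growth inhibition.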

Experiments:
Experiment in all cases: NCI anticancer screen, dose series, 48 h
SF-295 CNS = test system: SF-295 CNS
KM20L2 colon = test system: KM20L2 colon
SF-539 CNS = test system: SF-539 CNS
SF-268 CNS = test system: SF-268 CNS
HOP-18 NSCLC = test system: HOP-18 NSCLC
DLD-1 colon = test system: DLD-1 colon
RPMI-8226 leukemia = test system: RPMI-8226 leukemia
HCT-116 colon = test system: HCT-116 colon
SNB-19 CNS = test system: SNB-19 CNS
DMS 114 small cell lung = test system: DMS 114 small cell lung
SW-620 colon = test system: SW-620 colon
SN12C renal = test system: SN12C renal
M19-MEL melanoma = test system: M19-MEL melanoma
HOP-62 NSCLC = test system: HOP-62 NSCLC
UACC-62 melanoma = test system: UACC-62 melanoma
UACC-257 melanoma = test system: UACC-257 melanoma
IGROV1 ovarian = test system: IGROV1 ovarian
XF 498 CNS = test system: XF 498 CNS
HL-60(TB) leukemia = test system: HL-60(TB) leukemia
U251 CNS = test system: U251 CNS
SNB-78 CNS = test system: SNB-78 CNS
SK-OV-3 ovarian = test system: SK-OV-3 ovarian
ACHN renal = test system: ACHN renal
HOP-92 NSCLC = test system: HOP-92 NSCLC
786-0 renal = test system: 786-0 renal
RXF 393 renal = test system: RXF 393 renal
SR leukemia = test system: SR leukemia
COLO 205 colon = test system: COLO 205 colon
SK-MEL-5 melanoma = test system: SK-MEL-5 melanoma
LXFL 529 NSCLC = test system: LXFL 529 NSCLC
MOLT-4 leukemia = test system: MOLT-4 leukemia
A498 renal = test system: A498 renal
HT29 colon = test system: HT29 colon
OVCAR-4 ovarian = test system: OVCAR-4 ovarian
DMS 273 small cell lung = test system: DMS 273 small cell lung
NCI-H23 lung = test system: NCI-H23 lung
M14 melanoma = test system: M14 melanoma
MALME-3M melanoma = test system: MALME-3M melanoma
SNB-75 CNS = test system: SNB-75 CNS
OVCAR-8 ovarian = test system: OVCAR-8 ovarian
EKVX NSCLC = test system: EKVX NSCLC
SK-MEL-28 melanoma = test system: SK-MEL-28 melanoma
K-562 leukemia = test system: K-562 leukemia
CCRF-CEM leukemia = test system: CCRF-CEM leukemia
NCI-H522 lung = test system: NCI-H522 lung
UO-31 renal = test system: UO-31 renal
NCI-H226 lung = test system: NCI-H226 lung
HCT-15 colon = test system: HCT-15 colon
A549 NSCLC = test system: A549 NSCLC
HCC-2998 colon = test system: HCC-2998 colon
LOX IMVI melanoma = test system: LOX IMVI melanoma
CAKI-1 renal = test system: CAKI-1 renal
OVCAR-5 ovarian = test system: OVCAR-5 ovarian
SK-MEL-2 melanoma = test system: SK-MEL-2 melanoma
TK-10 renal = test system: TK-10 renal
OVCAR-3 ovarian = test system: OVCAR-3 ovarian
NCI-H460 lung = test system: NCI-H460 lung
KM12 colon = test system: KM12 colon

COc1ccc(-c2cc(=O)c3c(O)c(OC)c(O)c(OC)c3o2)cc1OC
TGI (SF-295 CNS): > 100 µM
TGI (KM20L2 colon): > 100 µM
TGI (SF-539 CNS): > 100 µM
TGI (SF-268 CNS): > 100 µM
TGI (HOP-18 NSCLC): > 100 µM
TGI (DLD-1 colon): > 100 µM
TGI (RPMI-8226 leukemia): > 100 µM
TGI (HCT-116 colon): > 100 µM
TGI (SNB-19 CNS): > 100 µM
TGI (DMS 114 small cell lung): > 100 µM
TGI (SW-620 colon): > 100 µM
TGI (SN12C renal): > 100 µM
TGI (M19-MEL melanoma): > 100 µM
TGI (HOP-62 NSCLC): > 100 µM
TGI (UACC-62 melanoma): > 100 µM
TGI (UACC-257 melanoma): > 100 µM
TGI (IGROV1 ovarian): > 100 µM
TGI (XF 498 CNS): > 100 µM
TGI (HL-60(TB) leukemia): > 100 µM
TGI (U251 CNS): > 100 µM
TGI (SNB-78 CNS): > 100 µM
TGI (SK-OV-3 ovarian): > 100 µM
TGI (ACHN renal): > 100 µM
TGI (HOP-92 NSCLC): > 100 µM
TGI (786-0 renal): > 100 µM
TGI (RXF 393 renal): 55.6 µM
TGI (SR leukemia): > 100 µM
TGI (COLO 205 colon): > 100 µM
TGI (SK-MEL-5 melanoma): > 100 µM
TGI (LXFL 529 NSCLC): > 100 µM
TGI (MOLT-4 leukemia): > 100 µM
TGI (A498 renal): > 100 µM
TGI (HT29 colon): > 100 µM
TGI (OVCAR-4 ovarian): > 100 µM
TGI (DMS 273 small cell lung): > 100 µM
TGI (NCI-H23 lung): > 100 µM
TGI (M14 melanoma): > 100 µM
TGI (MALME-3M melanoma): > 100 µM
TGI (SNB-75 CNS): > 100 µM
TGI (OVCAR-8 ovarian): > 100 µM
TGI (EKVX NSCLC): > 100 µM
TGI (SK-MEL-28 melanoma): > 100 µM
TGI (K-562 leukemia): > 100 µM
TGI (CCRF-CEM leukemia): > 100 µM
TGI (NCI-H522 lung): 42.8 µM
TGI (UO-31 renal): > 100 µM
TGI (NCI-H226 lung): > 100 µM
TGI (HCT-15 colon): > 100 µM
TGI (A549 NSCLC): > 100 µM
TGI (HCC-2998 colon): > 100 µM

COc1ccc(C23c4ccc(OC)cc4CC2(c2ccc([N+](=O)[O-])cc2)Cc2cc(OC)ccc23)cc1 (stereo unspecified)
TGI (SF-295 CNS): > 100 µM
TGI (LOX IMVI melanoma): > 100 µM
TGI (KM20L2 colon): > 44.9 µM
TGI (SF-539 CNS): > 74.5 µM
TGI (SF-268 CNS): > 56.9 µM
TGI (HOP-18 NSCLC): 30.8 µM
TGI (DLD-1 colon): > 100 µM
TGI (CAKI-1 renal): > 100 µM
TGI (RPMI-8226 leukemia): > 100 µM
TGI (HCT-116 colon): > 100 µM
TGI (SNB-19 CNS): > 100 µM
TGI (DMS 114 small cell lung): > 100 µM
TGI (SW-620 colon): > 100 µM
TGI (OVCAR-5 ovarian): > 85.4 µM
TGI (SN12C renal): > 100 µM
TGI (M19-MEL melanoma): > 88.2 µM
TGI (HOP-62 NSCLC): > 88 µM
TGI (UACC-62 melanoma): > 41.7 µM
TGI (UACC-257 melanoma): > 100 µM
TGI (IGROV1 ovarian): > 81.6 µM
TGI (XF 498 CNS): > 100 µM
TGI (HL-60(TB) leukemia): > 100 µM
TGI (U251 CNS): > 100 µM
TGI (SNB-78 CNS): > 100 µM
TGI (SK-OV-3 ovarian): > 100 µM
TGI (ACHN renal): > 100 µM
TGI (HOP-92 NSCLC): > 44.6 µM
TGI (786-0 renal): > 100 µM
TGI (SK-MEL-2 melanoma): > 100 µM
TGI (COLO 205 colon): > 52.1 µM
TGI (SK-MEL-5 melanoma): > 40.2 µM
TGI (LXFL 529 NSCLC): > 100 µM
TGI (MOLT-4 leukemia): > 69.2 µM
TGI (A498 renal): > 100 µM
TGI (HT29 colon): > 100 µM
TGI (TK-10 renal): > 100 µM
TGI (OVCAR-4 ovarian): > 100 µM
TGI (OVCAR-3 ovarian): > 100 µM
TGI (DMS 273 small cell lung): > 100 µM
TGI (NCI-H23 lung): > 79.3 µM
TGI (M14 melanoma): > 100 µM
TGI (MALME-3M melanoma): > 68.4 µM
TGI (SNB-75 CNS): > 100 µM
TGI (NCI-H460 lung): > 100 µM
TGI (OVCAR-8 ovarian): > 100 µM
TGI (EKVX NSCLC): > 37.9 µM
TGI (SK-MEL-28 melanoma): > 55.1 µM
TGI (K-562 leukemia): > 100 µM
TGI (CCRF-CEM leukemia): > 100 µM
TGI (NCI-H522 lung): > 100 µM
TGI (UO-31 renal): > 77.4 µM
TGI (KM12 colon): > 100 µM
TGI (NCI-H226 lung): > 100 µM
TGI (HCT-15 colon): > 100 µM
TGI (A549 NSCLC): > 100 µM
TGI (HCC-2998 colon): > 73 µM
